Laboratory results from patent US8586588B2, “Aryl pyridazinone derivatives and their use as H3 receptor ligands” (Cephalon, Inc., priority 2006, dated 2013).

Legend:
[1] = molecular target: T1, rat histamine H3 receptor (Rattus norvegicus, UniProt Q9QYN8); assay: Rat H3 radioligand binding ([3H]-N-alpha-methylhistamine, CHO-A3 cell membranes, SPA); conditions: Table A, binding constant as letter class; read-out: Rat H3 Ki
T1 construct: encoding the entire 445-amino-acid rat histamine H3 receptor; expressed in transfected cells
T1 sequence (Q9QYN8 whole entry): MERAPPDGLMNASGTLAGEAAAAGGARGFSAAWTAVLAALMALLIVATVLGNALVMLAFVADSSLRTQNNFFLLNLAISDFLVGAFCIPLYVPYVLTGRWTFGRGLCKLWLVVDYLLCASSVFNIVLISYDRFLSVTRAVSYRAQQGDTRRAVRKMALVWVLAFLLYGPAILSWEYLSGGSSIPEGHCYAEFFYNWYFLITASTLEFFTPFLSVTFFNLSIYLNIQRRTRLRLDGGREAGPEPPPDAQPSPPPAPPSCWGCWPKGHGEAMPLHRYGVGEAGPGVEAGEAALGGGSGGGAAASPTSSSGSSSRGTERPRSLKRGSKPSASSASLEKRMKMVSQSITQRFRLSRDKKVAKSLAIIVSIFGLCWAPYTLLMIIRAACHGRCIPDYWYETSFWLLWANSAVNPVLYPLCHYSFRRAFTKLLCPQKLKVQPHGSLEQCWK
Method: (§1) This was engineered into the pIRES-neo3 mammalian expression vector, which was stably transfected into the CHO-A3 cell line (Euroscreen, Belgium), followed by clonal selection by limiting dilution. Cells were harvested and cell pellets were frozen (−80° C.). Cell pellets were resuspended in 5 mM Tris-HCl, pH 7.5 with […] and a cocktail of protease inhibitors (Complete Protease Inhibition Tablets, Roche Diagnostics). Cells were disrupted using a polytron cell homogenizer and the suspension was centrifuged at 1000×g for 10 minutes at 4° C. The pellet was discarded and the supernatant centrifuged at 40,000×g for 30 min at 4° C. This membrane pellet was washed in membrane buffer containing 50 mM Tris-HCl, pH 7.5 with 0.6 mM EDTA, 5 mM MgCl2 and protease inhibitors, recentrifuged as above and the final pellet resuspended in membrane buffer plus 250 mM sucrose and frozen at −80° C.
(§2) Membranes were resuspended in 50 mM Tris HCl (pH 7.4), 5 mM MgCl2, 0.1% BSA. The membrane suspensions (10 μg protein per well) were incubated in a 96 well microtiter plate with [^3H]-N-alpha-methylhistamine (approximately 1 nM final concentration), test compounds at various concentrations (0.01 nM-30 μM) and scintillation proximity beads (Perkin Elmer, FlashBlueGPCR Scintillating Beads) in a final volume of 80 μl for 4 hours at room temperature, protected from light. Non-specific binding was determined in the presence of 10 μM clobenpropit. Radioligand bound to receptor, and therefore in proximity to the scintillation beads, was measured using a MicroBeta scintillation counter.

human H3 receptor = molecular target: T2, human H3 receptor (Homo sapiens, UniProt Q9Y5N1); assay: Human H3 radioligand binding ([3H]-N-alpha-methylhistamine, CHO cell membranes, SPA); conditions: Table A, binding constant as letter class
T2 construct: expressed in transfected cells
T2 sequence (Q9Y5N1 whole entry): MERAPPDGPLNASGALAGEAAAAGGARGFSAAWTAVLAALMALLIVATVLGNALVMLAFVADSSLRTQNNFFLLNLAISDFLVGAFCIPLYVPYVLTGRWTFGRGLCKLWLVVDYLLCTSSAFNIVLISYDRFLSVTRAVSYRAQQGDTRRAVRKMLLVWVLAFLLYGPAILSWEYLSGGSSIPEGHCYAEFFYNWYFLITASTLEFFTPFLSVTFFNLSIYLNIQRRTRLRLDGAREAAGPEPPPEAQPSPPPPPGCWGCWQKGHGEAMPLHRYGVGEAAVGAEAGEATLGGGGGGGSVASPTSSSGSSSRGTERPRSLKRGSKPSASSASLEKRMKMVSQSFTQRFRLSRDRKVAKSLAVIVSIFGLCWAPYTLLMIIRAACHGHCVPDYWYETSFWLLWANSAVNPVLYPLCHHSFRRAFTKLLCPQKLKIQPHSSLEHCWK
Method: as §1, with “Cell” for “This was engineered into the pIRES-neo3 mammalian expression vector, which was stably transfected into the CHO-A3 cell line (Euroscreen, Belgium), followed by clonal selection by limiting dilution. Cells were harvested and cell pellets were frozen (−80° C.). Cell”
as §2

Ki [1] [nM]	Ki (human H3 receptor) [nM]	SMILES
0.1 to 100	0.1 to 100	C[C@@H]1CCCN1CCCOc1ccc(C2=NN(c3ccccc3)C(=O)CC2)cc1 [Example 19]
0.1 to 100	0.1 to 100	C[C@@H]1CCCN1CCCOc1ccc(-c2ccc(=O)n(-c3ccccc3)n2)cc1 [Example 20, 6-{4-[3-((R)-2-Methyl-pyrrolidin-1-yl)-propoxy]-phenyl}-2-phenyl-2H-pyridazin-3-one]
501 to 1000	0.1 to 100	C[C@@H]1CCCN1CCCOc1ccc(-n2ncccc2=O)cc1 [Example 21, 2-{4-[3-((R)-2-Methyl-pyrrolidin-1-yl)-propoxy]-phenyl}-2H-pyridazin-3-one]
0.1 to 100	0.1 to 100	CC(C)n1nc(-c2ccc(OCCCN3CCC[C@H]3C)cc2)c2sccc2c1=O [Example 22, 5-Isopropyl-7-{4-[3-((R)-2-methyl-pyrrolidin-1-yl)-propoxy]-phenyl}-5H-thieno[2,3-d]pyridazin-4-one]
101 to 500	0.1 to 100	CC1CCC(C)N1CCCOc1ccc(-c2nn(C(C)C)c(=O)c3ccsc23)cc1 (centres unmarked) [Example 23, 7-{4-[3-(2,5-Dimethyl-pyrrolidin-1-yl)-propoxy]-phenyl}-5-isopropyl-5H-thieno[2,3-d]pyridazin-4-one]
0.1 to 100	0.1 to 100	CC(C)n1nc(-c2ccc(OCCCN3CCCCC3)cc2)c2sccc2c1=O [Example 24, 5-Isopropyl-7-[4-(3-piperidin-1-yl-propoxy)-phenyl]-5H-thieno[2,3-d]pyridazin-4-one]
> 1000	101 to 500	CC(C)n1nc(-c2ccc(OCCCN3CCCC(C)(C)C3)cc2)c2sccc2c1=O [Example 25, 7-{4-[3-(3,3-Dimethyl-piperidin-1-yl)-propoxy]-phenyl}-5-isopropyl-5H-thieno[2,3-d]pyridazin-4-one]
> 1000	0.1 to 100	COC[C@@H]1CCCN1CCCOc1ccc(-c2nn(C(C)C)c(=O)c3ccsc23)cc1 [Example 26, 5-Isopropyl-7-{4-[3-((S)-2-methoxymethyl-pyrrolidin-1-yl)propoxy]-phenyl}-5H-thieno[2,3-d]pyridazin-4-one]
> 1000	> 1000	COC[C@H]1CCCN1CCCOc1ccc(-c2nn(C(C)C)c(=O)c3ccsc23)cc1 [Example 27, 5-Isopropyl-7-{4-[3-((R)-2-methoxymethyl-pyrrolidin-1-yl)-propoxy]-phenyl}-5H-thieno[2,3-d]pyridazin-4-one]
101 to 500	0.1 to 100	CCN(CC)CCCOc1ccc(-c2nn(C(C)C)c(=O)c3ccsc23)cc1 [Example 28, 7-[4-(3-Diethylamino-propoxy)-phenyl]-5-isopropyl-5H-thieno[2,3-d]pyridazin-4-one]
0.1 to 100	0.1 to 100	CC(C)n1nc(-c2ccc(OCCCN3CCCC3)cc2)c2sccc2c1=O [Example 29, 5-Isopropyl-7-[4-(3-pyrrolidin-1-yl-propoxy)-phenyl]-5H-thieno[2,3-d]-pyridazin-4-one]
501 to 1000	0.1 to 100	CC(C)n1nc(-c2ccc(OCCCN3CCC(N4CCCC4)CC3)cc2)c2sccc2c1=O [Example 30, 5-Isopropyl-7-{4-[3-(4-pyrrolidin-1-yl-piperidin-1-yl)-propoxy]-phenyl}-5H-thieno[2,3-d]pyridazin-4-one]
101 to 500	0.1 to 100	CC(C)n1nc(-c2ccc(OCCCN3[C@H](C)CC[C@H]3C)cc2)c2sccc2c1=O [Example 31, 7-{4-[3-((2R,5R)-2,5-Dimethyl-pyrrolidin-1-yl)-propoxy]-phenyl}-5-isopropyl-5H-thieno[2,3-d]pyridazin-4-one]
0.1 to 100	0.1 to 100	CCCn1nc(-c2ccc(OCCCN3CCC[C@H]3C)cc2)c2sccc2c1=O [Example 32, 7-{4-[3-((R)-2-Methyl-pyrrolidin-1-yl)-propoxy]phenyl}-5-propyl-5H-thieno[2,3-d]pyridazin-4-one]
101 to 500	0.1 to 100	CCCn1nc(-c2ccc(OCCCN3[C@H](C)CC[C@H]3C)cc2)c2sccc2c1=O [Example 33, 7-{4-[3-((2R,5R)-2,5-Dimethyl-pyrrolidin-1-yl)-propoxy]-phenyl)-5-propyl-5H-thieno[2,3-d]pyridazin-4-one]
0.1 to 100	0.1 to 100	CCCn1nc(-c2ccc(OCCCN3CCC(C)CC3)cc2)c2sccc2c1=O [Example 34, 7-{4-[3-(4-Methyl-piperidin-1-yl)-propoxy]-phenyl}-5-propyl-5H-thieno[2,3-d]pyridazin-4-one]

Ki [1] [nM]	Ki (human H3 receptor) [nM]	SMILES
101 to 500	101 to 500	CCCn1nc(-c2ccc(OCCCN3CCC(N(C)C)CC3)cc2)c2sccc2c1=O [Example 35, 7-{4-[3-(4-Dimethylamino-piperidin-1-yl)-propoxy]-phenyl}-5-propyl-5H-thieno[2,3-d]pyridazin-4-one]
> 1000	101 to 500	CCCn1nc(-c2ccc(OCCCN3CCC[C@H]3CN3CCCC3)cc2)c2sccc2c1=O [Example 36, 5-Propyl-7-{4-[3-((S)-2-pyrrolidin-1-ylmethyl-pyrrolidin-1-yl)-propoxy]-phenyl}-5H-thieno[2,3-d]pyridazin-4-one]
101 to 500	0.1 to 100	O=c1c2ccsc2c(-c2ccc(OCCCN3CCCCC3)cc2)nn1Cc1ccc(Cl)cc1 [Example 37, 5-(4-Chloro-benzyl)-7-[4-(3-piperidin-1-yl-propoxy)-phenyl]-5H-thieno[2,3-d]pyridazin-4-one]
0.1 to 100	0.1 to 100	C[C@@H]1CCCN1CCCOc1ccc(-c2nn(Cc3ccc(Cl)cc3)c(=O)c3ccsc23)cc1 [Example 38, 5-(4-Chloro-benzyl)-7-{4-[3-((R)-2-methyl-pyrrolidin-1-yl)-propoxy]-phenyl}-5H-thieno[2,3-d]pyridazin-4-one]
0.1 to 100	0.1 to 100	Cc1cc(-c2ccc(OCCCN3CCCCC3)cc2)nn(C)c1=O [Example 39, 2,4-Dimethyl-6-[4-(3-piperidin-1-yl-propoxy)-phenyl]-2H-pyridazin-3-one]
0.1 to 100	0.1 to 100	Cc1cc(-c2ccc(OCCCN3CCC[C@H]3C)cc2)nn(C)c1=O [Example 40, 2,4-Dimethyl-6-{4-[3-((R)-2-methyl-pyrrolidin-1-yl)-propoxy]-phenyl}-2H-pyridazin-3-one]
0.1 to 100	0.1 to 100	Cc1cc(-c2ccc(OCCCN3CCC[C@H]3C)cc2)nn(C(C)C)c1=O [Example 41, 2-Isopropyl-4-methyl-6-{4-[3-((R)-2-methyl-pyrrolidin-1-yl)-propoxy]-phenyl}-2H-pyridazin-3-one]
101 to 500	101 to 500	Cc1cc(-c2ccc(OCCCN3CCCCC3)cc2)nn(C(C)C)c1=O [Example 42, 2-Isopropyl-4-methyl-6-[4-(3-piperidin-1-yl-propoxy)-phenyl]-2H-pyridazin-3-one]
0.1 to 100	0.1 to 100	Cc1cc(-c2ccc(OCCCN3CCC[C@H]3C)cc2)nn(Cc2ccccc2)c1=O [Example 43, 2-Benzyl-4-methyl-6-{4-[3-((R)-2-methyl-pyrrolidin-1-yl)-propoxy]-phenyl}-2H-pyridazin-3-one]
101 to 500	0.1 to 100	Cc1cc(-c2ccc(OCCCN3CCCCC3)cc2)nn(Cc2ccccc2)c1=O [Example 44, 2-Benzyl-4-methyl-6-[4-(3-piperidin-1-yl-propoxy)-phenyl]-2H-pyridazin-3-one]
0.1 to 100	0.1 to 100	C[C@@H]1CCCN1CCCOc1ccc(-c2cc(Cc3ccccc3)c(=O)n(C)n2)cc1 [Example 45, 4-Benzyl-2-methyl-6-{4-[3-((R)-2-methyl-pyrrolidin-1-yl)-propoxy]-phenyl}-2H-pyridazin-3-one]
101 to 500	0.1 to 100	Cn1nc(-c2ccc(OCCCN3CCCCC3)cc2)cc(Cc2ccccc2)c1=O [Example 46, 4-Benzyl-2-methyl-6-[4-(3-piperidin-1-yl-propoxy)-phenyl]-2H-pyridazin-3-one]
0.1 to 100	0.1 to 100	C[C@@H]1CCCN1CCCOc1ccc(-c2nn(C)c(=O)cc2-c2ccccc2)cc1 [Example 47, 2-Methyl-6-{4-[3-((R)-2-methyl-pyrrolidin-1-yl)-propoxy]-phenyl}-5-phenyl-2H-pyridazin-3-one]
0.1 to 100	0.1 to 100	Cn1nc(-c2ccc(OCCCN3CCCCC3)cc2)c(-c2ccccc2)cc1=O [Example 48, 2-Methyl-5-phenyl-6-[4-(3-piperidin-1-yl-propoxy)-phenyl]-2H-pyridazin-3-one]
0.1 to 100	0.1 to 100	C[C@@H]1CCCN1CCCOc1ccc(-c2nn(C)c(=O)c3ccccc23)cc1 [Example 49, 2-Methyl-4-{4-[3-((R)-2-methyl-pyrrolidin-1-yl)-propoxy]-phenyl}-2H-phthalazin-1-one]
